In brackets after ≈: the same amount, converted by molar mass.
How the values were obtained:
Type in all cases: functional
Candida albicans [1] = test: Antifungal activity against Candida albicans MTCC 183 after 48 hr by agar streak dilution method; conditions: MTCC 183, 48 h
Aspergillus niger [2] = test: Antifungal activity against Aspergillus niger MTCC 282 after 48 hr by agar streak dilution method; conditions: MTCC 282, 48 h
Candida albicans [3] = test: Antifungal activity against Candida albicans MTCC 183 after 24 hr by paper disk diffusion method; note: test concentration or dose not given here
Aspergillus niger [4] = test: Antifungal activity against Aspergillus niger MTCC 282 after 24 hr by paper disk diffusion method; note: test concentration or dose not given here
Shigella flexneri [5] = test: Antibacterial activity against Shigella flexneri MTCC 1457 after 24 hr by agar streak dilution method; conditions: MTCC 1457, 24 h
Proteus vulgaris [6] = test: Antibacterial activity against Proteus vulgaris MTCC 1771 after 24 hr by agar streak dilution method; conditions: MTCC 1771, 24 h
Salmonella typhi [7] = test: Antibacterial activity against Salmonella enterica subsp. enterica serovar Typhi MTCC 733 after 24 hr by agar streak dilution method; conditions: MTCC 733, 24 h
Klebsiella pneumoniae [8] = test: Antibacterial activity against Klebsiella pneumoniae MTCC 109 after 24 hr by agar streak dilution method; conditions: MTCC 109, 24 h
Pseudomonas aeruginosa [9] = test: Antibacterial activity against Pseudomonas aeruginosa MTCC 741 after 24 hr by agar streak dilution method; conditions: MTCC 741, 24 h
Escherichia coli [10] = test: Antibacterial activity against Escherichia coli MTCC 739 after 24 hr by agar streak dilution method; conditions: MTCC 739, 24 h
Bacillus cereus [11] = test: Antibacterial activity against Bacillus cereus MTCC 619 after 24 hr by agar streak dilution method; conditions: MTCC 619, 24 h
Staphylococcus aureus [12] = test: Antibacterial activity against Staphylococcus aureus MTCC 96 after 24 hr by agar streak dilution method; conditions: MTCC 96, 24 h
Shigella flexneri [13] = test: Antibacterial activity against Shigella flexneri MTCC 1457 after 24 hr by paper disk diffusion method
Proteus vulgaris [14] = test: Antibacterial activity against Proteus vulgaris MTCC 1771 after 24 hr by paper disk diffusion method; note: test concentration or dose not given here
Salmonella typhi [15] = test: Antibacterial activity against Salmonella enterica subsp. enterica serovar Typhi MTCC 733 after 24 hr by paper disk diffusion method
Klebsiella pneumoniae [16] = test: Antibacterial activity against Klebsiella pneumoniae MTCC 109 after 24 hr by paper disk diffusion method
Pseudomonas aeruginosa [17] = test: Antibacterial activity against Pseudomonas aeruginosa MTCC 741 after 24 hr by paper disk diffusion method
Escherichia coli [18] = test: Antibacterial activity against Escherichia coli MTCC 739 after 24 hr by paper disk diffusion method
Bacillus cereus [19] = test: Antibacterial activity against Bacillus cereus MTCC 619 after 24 hr by paper disk diffusion method; note: test concentration or dose not given here
Staphylococcus aureus [20] = test: Antibacterial activity against Staphylococcus aureus MTCC 96 after 24 hr by paper disk diffusion method

Compound | MIC (Candida albicans [1]) [µg/mL] | MIC (Aspergillus niger [2]) [µg/mL] | inhibition zone (IZ) (Candida albicans [3]) [mm] | inhibition zone (IZ) (Aspergillus niger [4]) [mm] | MIC (Shigella flexneri [5]) [µg/mL] | MIC (Proteus vulgaris [6]) [µg/mL] | MIC (Salmonella typhi [7]) [µg/mL] | MIC (Klebsiella pneumoniae [8]) [µg/mL] | MIC (Pseudomonas aeruginosa [9]) [µg/mL] | MIC (Escherichia coli [10]) [µg/mL] | MIC (Bacillus cereus [11]) [µg/mL] | MIC (Staphylococcus aureus [12]) [µg/mL] | inhibition zone (IZ) (Shigella flexneri [13]) [mm] | inhibition zone (IZ) (Proteus vulgaris [14]) [mm] | inhibition zone (IZ) (Salmonella typhi [15]) [mm] | inhibition zone (IZ) (Klebsiella pneumoniae [16]) [mm] | inhibition zone (IZ) (Pseudomonas aeruginosa [17]) [mm] | inhibition zone (IZ) (Escherichia coli [18]) [mm] | inhibition zone (IZ) (Bacillus cereus [19]) [mm] | inhibition zone (IZ) (Staphylococcus aureus [20]) [mm]
Cn1c(=O)cc(Oc2nc(NCCc3cccs3)nc(Nc3ccc(C#N)cc3)n2)c2ccccc21 | 25 (≈ 50.4 µM) | 25 (≈ 50.4 µM) | 15 | 13 | 25 (≈ 50.4 µM) | 50 (≈ 101 µM) | 50 (≈ 101 µM) | 50 (≈ 101 µM) | 50 (≈ 101 µM) | 50 (≈ 101 µM) | 25 (≈ 50.4 µM) | 6.25 (≈ 12.6 µM) | 14 | 7 | 12 | 10 | 10 | 10 | 13 | 15
CNc1nc(Nc2ccc(C#N)cc2)nc(Oc2cc(=O)n(C)c3ccccc23)n1 | > 50 | > 50 | <5 | <5 | 50 (≈ 125 µM) | 50 (≈ 125 µM) | 50 (≈ 125 µM) | 50 (≈ 125 µM) | 6.25 (≈ 15.6 µM) | 50 (≈ 125 µM) | 50 (≈ 125 µM) | 50 (≈ 125 µM) | 8 | 8 | <5 | – | 14 | <5 | 7 | 11
CCNc1nc(Nc2ccc(C#N)cc2)nc(Oc2cc(=O)n(C)c3ccccc23)n1 | > 50 | > 50 | <5 | <5 | 50 (≈ 121 µM) | 50 (≈ 121 µM) | 50 (≈ 121 µM) | 50 (≈ 121 µM) | 12.5 (≈ 30.2 µM) | 50 (≈ 121 µM) | 50 (≈ 121 µM) | 50 (≈ 121 µM) | 7 | <5 | 9 | – | 12 | 8 | <5 | 10
CCN(CC)c1nc(Nc2ccc(C#N)cc2)nc(Oc2cc(=O)n(C)c3ccccc23)n1 | 50 (≈ 113 µM) | 50 (≈ 113 µM) | 9 | 9 | 50 (≈ 113 µM) | 50 (≈ 113 µM) | 50 (≈ 113 µM) | 50 (≈ 113 µM) | 50 (≈ 113 µM) | 50 (≈ 113 µM) | 12.5 (≈ 28.3 µM) | 25 (≈ 56.6 µM) | 10 | <5 | 10 | – | 10 | 11 | 16 | 13
CCOC(=O)CNc1nc(Nc2ccc(C#N)cc2)nc(Oc2cc(=O)n(C)c3ccccc23)n1 | > 50 | 50 (≈ 106 µM) | <5 | 9 | 50 (≈ 106 µM) | 12.5 (≈ 26.5 µM) | 50 (≈ 106 µM) | 50 (≈ 106 µM) | 50 (≈ 106 µM) | 50 (≈ 106 µM) | 50 (≈ 106 µM) | 50 (≈ 106 µM) | 11 | 15 | 8 | – | <5 | 7 | 9 | 6
CN(C)c1nc(Nc2ccc(C#N)cc2)nc(Oc2cc(=O)n(C)c3ccccc23)n1 | > 50 | > 50 | <5 | <5 | 50 (≈ 121 µM) | 50 (≈ 121 µM) | 50 (≈ 121 µM) | 50 (≈ 121 µM) | 50 (≈ 121 µM) | 50 (≈ 121 µM) | 12.5 (≈ 30.2 µM) | 50 (≈ 121 µM) | <5 | 9 | 7 | – | 8 | 10 | 14 | 12
Cn1c(=O)cc(Oc2nc(NCC(=O)O)nc(Nc3ccc(C#N)cc3)n2)c2ccccc21 | > 50 | 50 (≈ 113 µM) | <5 | 7 | 50 (≈ 113 µM) | 25 (≈ 56.4 µM) | 50 (≈ 113 µM) | 50 (≈ 113 µM) | 50 (≈ 113 µM) | 50 (≈ 113 µM) | 50 (≈ 113 µM) | 50 (≈ 113 µM) | 9 | 13 | 8 | – | 8 | <5 | 7 | <5
CC(C)Nc1nc(Nc2ccc(C#N)cc2)nc(Oc2cc(=O)n(C)c3ccccc23)n1 | 50 (≈ 117 µM) | 50 (≈ 117 µM) | 7 | 8 | 50 (≈ 117 µM) | 50 (≈ 117 µM) | 50 (≈ 117 µM) | 50 (≈ 117 µM) | 50 (≈ 117 µM) | 50 (≈ 117 µM) | 25 (≈ 58.5 µM) | 50 (≈ 117 µM) | 8 | 8 | 6 | – | <5 | 9 | 13 | 8
Cn1c(=O)cc(Oc2nc(NCCO)nc(Nc3ccc(C#N)cc3)n2)c2ccccc21 | > 50 | > 50 | <5 | <5 | 50 (≈ 116 µM) | 50 (≈ 116 µM) | 50 (≈ 116 µM) | 50 (≈ 116 µM) | 50 (≈ 116 µM) | 50 (≈ 116 µM) | 50 (≈ 116 µM) | 50 (≈ 116 µM) | 7 | 7 | 9 | – | 9 | <5 | <5 | <5
CCCCNc1nc(Nc2ccc(C#N)cc2)nc(Oc2cc(=O)n(C)c3ccccc23)n1 | 50 (≈ 113 µM) | > 50 | 6 | <5 | 50 (≈ 113 µM) | 50 (≈ 113 µM) | 50 (≈ 113 µM) | 50 (≈ 113 µM) | 25 (≈ 56.6 µM) | 50 (≈ 113 µM) | 50 (≈ 113 µM) | 50 (≈ 113 µM) | 7 | <5 | 6 | – | 11 | <5 | 8 | 12
Cn1c(=O)cc(Oc2nc(NCCCl)nc(Nc3ccc(C#N)cc3)n2)c2ccccc21 | 50 (≈ 112 µM) | 50 (≈ 112 µM) | 9 | 8 | 50 (≈ 112 µM) | 50 (≈ 112 µM) | 25 (≈ 55.8 µM) | 50 (≈ 112 µM) | 50 (≈ 112 µM) | 25 (≈ 55.8 µM) | 50 (≈ 112 µM) | 25 (≈ 55.8 µM) | <5 | 8 | 13 | – | 7 | 15 | 11 | 12
